Measurements reported in article PMC4721142, “Randomized controlled studies on the efficacy of antiarthritic agents in inhibiting cartilage degeneration and pain associated with progression of osteoarthritis in the rat” (Arthritis Research & Therapy, 2016).
Several values for one entry are separate records, joined by “and”; a condition that tells them apart may be missing. Equal entries are not always repeated.

Key:
[1] = test system: MMT/MCLT rat model of OA; experiment: MMT/MCLT trial 1 weight bearing (daily morphine 10 mg/kg, tacrolimus 0.3 or 0.6 mg/kg, fluocinolone 5 or 10 μg/kg, clonidine 100 μg/kg, alendronate 10 μg/kg i.p.; curcumin, withaferin 50 mg/kg p.o.); type: in vivo
Method: Weight bearing (WB; incapacitance) was measured five times per day, once per week, using a Linton incapacitance meter (Stoelting Co., Wood Dale, IL, USA). Rats were acclimated to the meter before study initiation, and, similarly, immediately before WB, the animals were placed in the meter and allowed to acclimate for 2–5 minutes. Each hind paw was placed on a separate force plate so that the force exerted by each side could be averaged over a 5-second interval, and the mean of three readings was taken for each data point. Right paw force was compared with that on the left side for each group to confirm that animals were displaying incapacitance and/or pain behavior. Differences in force (left minus right) and right paw force as a percentage of the total force exerted by both paws were determined and compared between groups.
Following isoflurane anesthesia, the medial collateral ligament was transected just below its attachment to the meniscus in the right knee. The meniscus was cut at its narrowest point away from the ossicles so as not to damage the tibial surface and to ensure that the anterior and posterior meniscus halves were freely movable. […] In trial 2, drugs were administered IA weekly beginning 1 week following surgery. Three weeks postsurgery, animals were humanely killed and their right knees were collected for histopathology. All studies were conducted in accordance with the International Association for the Study of Pain Guidelines and were approved by the Bolder BioPATH IACUC (Boulder, CO, USA) in compliance with regulations before study initiation (IACUC protocol BBP03-006). Those running the studies were blinded to the treatments. See Additional file 1 for further details.
Isoflurane and the right knee area prepared for surgery. A skin incision was made over the medial aspect of the knee and the medial collateral ligament was exposed by blunt dissection and then transected. The medial meniscus was cut through the full thickness to simulate a complete tear and the skin was then closed with suture.
All pharmaceutical agents were prepared and stored as recommended by the supplier. Daily drug preparations were made fresh from stock solutions. […]
In Trial 2 drugs were […]
administered IA weekly beginning one week following surgery. […]
were delivered by gavage and were prepared in 0.3% Methyl Cellulose.
WB was measured five times a day, once a week, using a Linton incapacitance meter (Stoelting Co.) to assess pain behavior. Rats were acclimated to the incapacitance meter prior to study initiation.
Similarly, immediately prior to WB animals were placed in the incapacitance meter and allowed to acclimate for 2-5 minutes. Each hind paw was placed on a separate force plate so that the force exerted by each side could be averaged over a 5 second interval and the mean of three readings taken for each data point. Right paw force was compared to left for each group to confirm that animals were displaying incapacitance / pain behavior. Difference in force (left minus right) and right paw force as a percentage of the total force exerted by both paws were determined and compared between groups. Three weeks after surgery, animals were humanely euthanized and right knees collected for histopathology evaluation.
Figure 2. MMT/MCLT Trial Timeline […]
MMT/MCLT Dosing (once/day)
The study design and animal usage was approved by Bolder BioPATH’s Institutional Animal Care and Use Committee (IACUC) for compliance with regulations prior to study initiation (IACUC […]
Labs. Animals were identified by a distinct mark at the base of the tail delineating group and animal number. After randomization, all cages were labeled with protocol number, group numbers, and animal numbers with appropriate color-coding (see protocol).

[2] = test system: MIA rat model of OA; experiment: MIA trial 3 histopathology (same doses as dRS test); type: in vivo; parameters: key to Cartilage matrix damage score: 5-point cartilage matrix score; key to Mean of all cartilage loss: approximate % loss, mean of four articular surfaces; Subchondral bone sclerosis: scale not given here; settings: group mean
Excerpt: For MIA trial 3, joints were fixed and toluidine blue–stained sections of the rat knees were comprehensively analyzed from test and control subjects as detailed in Additional file 1. Briefly, a 5-point cartilage matrix score was derived based upon (1) approximate percentage of total loss of articular chondrocytes for each of four articular surfaces, (2) estimated proteoglycan loss (via Safranin O staining), and (3) loss of interstitial matrix. Chondrocyte necrosis and proteolytic degeneration of the femurs were scored on a 5-point scale as in trial 1. A femoral cartilage degeneration score and a three-zone sum of the tibial cartilage degeneration scores (mean of three levels) were also summed to create a total cartilage degeneration score. The mean osteophyte score for each joint was added to this value to create a total joint score with matrix. Other parameters assessed included synovial membrane inflammation and proliferation. Representative images from each group were also collected (see, e.g., Fig. 4 and Additional file 1: Fig. S55, Trial 3). […]
Hawes, APS, Pathologist). Treatments were masked during the assessment. Chondrocyte necrosis and proteolytic degeneration of the femurs were scored on a 5 point scale with 0 = None; 1 = <10%; […]
For the histopathology of the MIA model in Trial 3, completed by Bolder BioPATH (and Dr.
Bendele), a tolouidine blue stained slide containing both halves of the joint was comprehensively analyzed from test and control subjects. Approximate % of total loss of articular chondrocytes, loss of proteoglycan and loss of collagenous matrix were determined for each articular surface (medial tibial plateau (MTP), lateral tibial plateau (LTP), medial femoral condyle (MFC), and lateral femoral condyle (LFC). Chondrocyte loss was quantified by estimating the area of cartilage in which there were no apparently viable chondrocytes and proteoglycan loss was quantified by estimating differences in intensity of toluidine blue matrix staining. Loss of interstitial matrix was an indication of disruption and diminished type II collagen. Based on the mean % loss for the four surfaces in these parameters, a five point matrix score was utilized with the subchondral bone resorption, subchondral bone sclerosis and osteophyte scores to achieve a total joint score. […]
[…] steps, stained with toluidine blue (with a right and left halve per section), and analyzed for cartilage degeneration, proteoglycan loss, collagen damage, and osteophyte formation. Results were averaged across the 3 sections for an overall semi-quantitative score. Regional differences across the tibial plateau were taken into consideration by dividing each section into 3 zones delineated using an ocular micrometer (outside, middle, and inside). Scores were based on the percentage of area affected within the zone.
Cartilage degeneration in the tibia was scored on a five point scale for each zone, collagen damage across the medial tibial plateau was measured by total width for each grade damage. Cartilage degeneration in the tibia was scored none to severe (numerical values 0-5) for each zone (area defined by micrometer) using the following criteria: […]

Structure (SMILES)	Weight bearing, hours with significant effect ([1]; day 7, low or only dose)	Bone resorption percent, LFC ([2]; i.a. weekly)	Bone resorption percent, LTP ([2]; i.a. weekly)	Bone resorption percent, MFC ([2]; i.a. weekly)	Bone resorption percent, MTP ([2]; i.a. weekly)	Bone resorption percent, mean ([2]; i.a. weekly)	Bone resorption score ([2]; i.a. weekly)	Cartilage matrix damage score ([2]; i.a. weekly)	Mean of all cartilage loss ([2]; i.a. weekly)	Osteophyte measure ([2]; i.a. weekly)	Osteophyte score ([2]; i.a. weekly)	Subchondral bone sclerosis ([2]; i.a. weekly)	Total joint score w/o matrix ([2]; i.a. weekly)	Total joint score with matrix ([2]; i.a. weekly)	Weight bearing, hours with significant effect ([1]; day 14, low or only dose)	Weight bearing, hours with significant effect ([1]; day 21, low or only dose)	further results
Clc1cccc(Cl)c1N=C1NCCN1 [Clonidine]	1 h	51%	61%	47%	65%	56%	3.0	3.0 and 3.0 ± 1.1	47.8	560.0 µm	2.7	0.0	5.7	8.7 and 8.7 ± 3.3	–	–	Bone resorption percent, LFC ([2]; clonidine 100 μg/kg s.c.): 72%; Bone resorption percent, LTP ([2]; clonidine 100 μg/kg s.c.): 87%; Bone resorption percent, MFC ([2]; clonidine 100 μg/kg s.c.): 67%; Bone resorption percent, MTP ([2]; clonidine 100 μg/kg s.c.): 83%; Bone resorption percent, mean ([2]; clonidine 100 μg/kg s.c.): 77%; Bone resorption score ([2]; clonidine 100 μg/kg s.c.): 4.3; Cartilage matrix damage score ([2]; clonidine 100 μg/kg s.c.): 3.7 and 3.7 ± 0.9; Mean of all cartilage loss ([2]; clonidine 100 μg/kg s.c.): 64.9; Osteophyte measure ([2]; clonidine 100 μg/kg s.c.): 560.0 µm; Osteophyte score ([2]; clonidine 100 μg/kg s.c.): 2.7; Subchondral bone sclerosis ([2]; clonidine 100 μg/kg s.c.): 0.0; Total joint score w/o matrix ([2]; clonidine 100 μg/kg s.c.): 7.0; Total joint score with matrix ([2]; clonidine 100 μg/kg s.c.): 10.7 and 10.7 ± 2.8
CC1(C)O[C@@H]2C[C@H]3[C@@H]4C[C@H](F)C5=CC(=O)C=C[C@]5(C)[C@@]4(F)[C@@H](O)C[C@]3(C)[C@]2(C(=O)CO)O1 [Fluocinolone, Fluocinolone Acetonide]	5 h	67%	67%	72%	67%	68%	3.7	3.3 and 3.3 ± 1.2	53.7	706.7 µm	3.3	0.0	7.0	10.3 and 10.3 ± 2.7	1,3 h	1 h	–
C=CC[C@@H]1/C=C(\C)C[C@H](C)C[C@H](OC)[C@H]2O[C@@](O)(C(=O)C(=O)N3CCCC[C@H]3C(=O)O[C@H](/C(C)=C/[C@@H]3CC[C@@H](O)[C@H](OC)C3)[C@H](C)[C@@H](O)CC1=O)[C@H](C)C[C@@H]2OC [Tacrolimus]	3 h	100%	100%	100%	100%	100%	5.0	5.0 and 5.0 ± 0.0	92.5	666.7 µm	3.3	0.0	8.3	13.3 and 13.3 ± 1.7	–	3 h	Weight bearing, hours with significant effect ([1]; day 14, tacrolimus 0.6 mg/kg, fluocinolone 0.010 mg/kg): 1 h
COc1ccc(C=CC(=O)Nc2ccccc2C(=O)O)cc1OC [Tranilast, N-(3′,4′-dimethoxycinnamoyl)anthranilic acid]	–	100%	100%	100%	97%	99%	5.0	5.0 and 5.0 ± 0.0	89.7	893.3 µm	4.3	0.0	9.3	14.3 and 14.3 ± 0.3	–	–	–
CC(C)(C)CC(=O)OCC(=O)[C@@]12OC(C)(C)O[C@@H]1C[C@H]1[C@@H]3CCC4=CC(=O)C=C[C@]4(C)[C@@]3(F)[C@@H](O)C[C@@]12C [Triamcinolone hexacetonide]	–	35%	34%	35%	32%	34%	2.3	3.3 ± 0.9	61.1	453.3 µm	2.0	0.7	5.0	8.3 ± 2.6	–	–	Cartilage matrix damage score ([2]; i.a. weekly, listed as TH): 3.3; Total joint score with matrix ([2]; i.a. weekly, listed as Trimacinolone Hexacetonide): 8.3
CC1=C(CO)C(=O)O[C@@H]([C@@H](C)[C@H]2CC[C@H]3[C@@H]4C[C@H]5O[C@]56[C@@H](O)C=CC(=O)[C@]6(C)[C@H]4CC[C@]23C)C1 [Withaferin A]	1 h	–	–	–	–	–	–	–	–	–	–	–	–	–	3 h	–	–
